What was measured:
Type in all cases: in vivo
[1] = system: ryegrass, Italian (Italian ryegrass, Lolium multiflorum); assay: Test A preemergence; conditions: for Ryegrass, Italian plant response rating (0 to 100 scale): Preemergence, 0 is no effect, 100 is complete control
Description: (§1) Seeds of plant species selected from barnyardgrass (Echinochloa crus-galli), Kochia (Kochia scoparia), ragweed (common ragweed, Ambrosia elatior), ryegrass, Italian (Italian ryegrass, Lolium multiflorum), crabgrass, large (Digitaria sanguinalis), giant foxtail (Setaria faberii), green foxtail (Setaria viridis), morningglory (Ipomoea spp.), pigweed (Amaranthus retroflexus), velvetleaf (Abutilon theophrasti), wheat (Triticum aestivum), and corn (Zea mays) were planted into a blend of loam soil and sand and treated preemergence with a directed soil spray using test chemicals formulated in anon-phytotoxic solvent mixture which included a surfactant.
(§2) At the same time, plants selected from these crop and weed species and also blackgrass (Alopecurus myosuroides), and Galium (catchweed bedstraw, Galium aparine) were planted in pots containing the same blend of loam soil and sand and treated with postemergence applications of test chemicals formulated in the same manner. Plants ranged in height from 2 to 10 cm and were in the one- to two-leaf stage for the postemergence treatment. Treated plants and untreated controls were maintained in a greenhouse for approximately 10 d, after which time all treated plants were compared to untreated controls and visually evaluated for injury. Plant response ratings, summarized in Table A, are based on a 0 to 100 scale where 0 is no effect and 100 is complete control. A dash (-) response means no test result.

[2] = system: giant foxtail (Setaria faberii); assay: Test A preemergence; conditions: for Foxtail, Giant plant response rating (0 to 100 scale): Preemergence, 0 is no effect, 100 is complete control
Description: as §1, §2

[3] = system: pigweed (Amaranthus retroflexus); assay: Test A preemergence; conditions: for Pigweed plant response rating (0 to 100 scale): Preemergence, 0 is no effect, 100 is complete control
Description: as §1, §2

[4] = system: barnyardgrass (Echinochloa crus-galli); assay: Test A preemergence; conditions: for Barnyardgrass plant response rating (0 to 100 scale): Preemergence, 0 is no effect, 100 is complete control
Description: as §1, §2

Kochia (Kochia scoparia) [5] = assay: Test A preemergence; conditions: for Kochia plant response rating (0 to 100 scale): Preemergence, 0 is no effect, 100 is complete control
Description: as §1, §2

[6] = system: ragweed (common ragweed, Ambrosia elatior); assay: Test A preemergence; conditions: for Ragweed plant response rating (0 to 100 scale): Preemergence, 0 is no effect, 100 is complete control
Description: as §1, §2

[7] = system: ryegrass, Italian (Italian ryegrass, Lolium multiflorum); assay: Test A postemergence; conditions: postemergence; for Plant response rating, Ryegrass, Italian: 0 to 100 scale, 0 no effect, 100 complete control
Description: as §1, §2

[8] = system: blackgrass (Alopecurus myosuroides); assay: Test A postemergence
Description: as §1, §2

[9] = system: giant foxtail (Setaria faberii); assay: Test A postemergence; conditions: postemergence; for Plant response rating, Foxtail, Giant: 0 to 100 scale, 0 no effect, 100 complete control
Description: as §1, §2

[10] = system: wheat (Triticum aestivum); assay: Test A postemergence; conditions: postemergence; for Plant response rating, Wheat: 0 to 100 scale, 0 no effect, 100 complete control
Description: as §1, §2

[11] = system: pigweed (Amaranthus retroflexus); assay: Test A postemergence; conditions: postemergence; for Plant response rating, Pigweed: 0 to 100 scale, 0 no effect, 100 complete control
Description: as §1, §2

[12] = system: Galium (catchweed bedstraw, Galium aparine); assay: Test A postemergence; conditions: postemergence; for Plant response rating, Galium: 0 to 100 scale, 0 no effect, 100 complete control
Description: as §1, §2

[13] = system: barnyardgrass (Echinochloa crus-galli); assay: Test A postemergence
Description: as §1, §2

Kochia (Kochia scoparia) [14] = assay: Test A postemergence; conditions: postemergence; for Plant response rating, Kochia: 0 to 100 scale, 0 no effect, 100 complete control
Description: as §1, §2

corn (Zea mays) = assay: Test A postemergence; conditions: postemergence; for Plant response rating, Corn: 0 to 100 scale, 0 no effect, 100 complete control
Description: as §1, §2

[15] = system: ragweed (common ragweed, Ambrosia elatior); assay: Test A postemergence; conditions: postemergence; for Plant response rating, Ragweed: 0 to 100 scale, 0 no effect, 100 complete control
Description: as §1, §2

[16] = 125 g ai/ha, preemergence, 0 to 100 scale (0 no effect, 100 complete control)
[17] = 125 g ai/ha, visual injury rating on 0 to 100 scale (0 no effect, 100 complete control), approx. 10 d
[18] = 500 g ai/ha, postemergence, 0 to 100 scale, 0 no effect, 100 complete control
[19] = Postemergence, 125 g ai/ha, visual injury, 0 to 100 scale (0 no effect, 100 complete control), approx. 10 d
[20] = 1000 g ai/ha, postemergence, 0 to 100 scale, 0 no effect, 100 complete control

Compound: O=C1NCC(c2cccc(O)c2)C1C(=O)Nc1cccc(F)c1F (racemic) [Compound 384]
- Plant response rating, Ryegrass, Italian [1, 16]: 0
- Ryegrass, Italian plant response rating (0 to 100 scale) ([1]; 500 g ai/ha): 0
- Plant response rating, Foxtail, Giant [2, 16]: 0
- Foxtail, Giant plant response rating (0 to 100 scale) ([2]; 500 g ai/ha): 0
- Plant response rating, Pigweed [3, 16]: 0
- Pigweed plant response rating (0 to 100 scale) ([3]; 500 g ai/ha): 0
- Plant response rating, Barnyardgrass [4, 16]: 0
- Barnyardgrass plant response rating (0 to 100 scale) ([4]; 500 g ai/ha): 0
- Plant response rating, Kochia (Kochia (Kochia scoparia) [5]; [16]): 0
- Kochia plant response rating (0 to 100 scale) (Kochia (Kochia scoparia) [5]; 500 g ai/ha): 0
- Plant response rating, Ragweed [6, 16]: 0
- Ragweed plant response rating (0 to 100 scale) ([6]; 500 g ai/ha): 0
- Ryegrass, Italian plant response rating [7, 17]: 0
- Plant response rating, Ryegrass, Italian ([7]; 500 g ai/ha): 0
- Plant response rating, Blackgrass [8, 18]: 0
- Plant response rating, Blackgrass [8, 19]: 0
- Foxtail, Giant plant response rating [9, 17]: 0
- Plant response rating, Foxtail, Giant ([9]; 500 g ai/ha): 0
- Wheat plant response rating [10, 17]: 0
- Plant response rating, Wheat ([10]; 500 g ai/ha): 0
- Pigweed plant response rating [11, 17]: 0
- Plant response rating, Pigweed ([11]; 500 g ai/ha): 0
- Galium plant response rating [12, 17]: 0
- Plant response rating, Galium ([12]; 500 g ai/ha): 0
- Plant response rating, Barnyardgrass [13, 18]: 0
- Plant response rating, Barnyardgrass [13, 19]: 0
- Kochia plant response rating (Kochia (Kochia scoparia) [14]; [17]): 0
- Plant response rating, Kochia (Kochia (Kochia scoparia) [14]; 500 g ai/ha): 0
- Corn plant response rating (corn (Zea mays); [17]): 0
- Plant response rating, Corn (corn (Zea mays); 500 g ai/ha): 0
- Ragweed plant response rating [15, 17]: 0
- Plant response rating, Ragweed ([15]; 500 g ai/ha): 0

Compound: O=C(Nc1cccc(F)c1F)C1C(=O)N(CC=Cc2ccccc2)CC1c1cc(F)cc(F)c1 (stereo not drawn) [Compound 511]
- Ryegrass, Italian plant response rating (0 to 100 scale) ([1]; 1000 g ai/ha): 0
- Foxtail, Giant plant response rating (0 to 100 scale) ([2]; 1000 g ai/ha): 90
- Pigweed plant response rating (0 to 100 scale) ([3]; 1000 g ai/ha): 0
- Barnyardgrass plant response rating (0 to 100 scale) ([4]; 1000 g ai/ha): 90
- Kochia plant response rating (0 to 100 scale) (Kochia (Kochia scoparia) [5]; 1000 g ai/ha): 0
- Ragweed plant response rating (0 to 100 scale) ([6]; 1000 g ai/ha): 0
- Plant response rating, Ryegrass, Italian ([7]; 1000 g ai/ha): 0
- Plant response rating, Blackgrass [8, 20]: 20
- Plant response rating, Foxtail, Giant ([9]; 1000 g ai/ha): 90
- Plant response rating, Wheat ([10]; 1000 g ai/ha): 0
- Plant response rating, Pigweed ([11]; 1000 g ai/ha): 0
- Plant response rating, Galium ([12]; 1000 g ai/ha): 0
- Plant response rating, Barnyardgrass [13, 20]: 90
- Plant response rating, Kochia (Kochia (Kochia scoparia) [14]; 1000 g ai/ha): 0
- Plant response rating, Corn (corn (Zea mays); 1000 g ai/ha): 0
- Plant response rating, Ragweed ([15]; 1000 g ai/ha): 0

— US12077503B2, “Substituted cyclic amides and their use as herbicides” (FMC CORPORATION, priority 2015, dated 2024)
